From patent US11998539B2, “Substituted aminoquinolones as DGKalpha inhibitors for immune activation” (Bayer Aktiengesellschaft, priority 2019, dated 2024)

Biological target: DGKα (Homo sapiens (Human), UniProt P23743)
Experiment: Human DGKα kinase activity inhibition assay (ADP-Glo)
Format: biochemical
Settings: recombinant full-length human DGKα, 55 μM ATP, 7 μM 1,2-dioleoyl-sn-glycerol, read-out: IC50 values of examples in in vitro human DGKa kinase activity inhibition assays
Method in brief: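 Activity was measured as ADP production, detected by luciferase luminescence after removal of unused ATP. The enzyme was baculovirus-expressed full-length human DGKα with a C-terminal FLAG tag. The substrate was 1,2-dioleoyl-sn-glycerol in detergent micelles, and compounds came from 100× DMSO solutions.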

Chain of DGKα (P23743 other isoform, or with tags, fused parts or gaps): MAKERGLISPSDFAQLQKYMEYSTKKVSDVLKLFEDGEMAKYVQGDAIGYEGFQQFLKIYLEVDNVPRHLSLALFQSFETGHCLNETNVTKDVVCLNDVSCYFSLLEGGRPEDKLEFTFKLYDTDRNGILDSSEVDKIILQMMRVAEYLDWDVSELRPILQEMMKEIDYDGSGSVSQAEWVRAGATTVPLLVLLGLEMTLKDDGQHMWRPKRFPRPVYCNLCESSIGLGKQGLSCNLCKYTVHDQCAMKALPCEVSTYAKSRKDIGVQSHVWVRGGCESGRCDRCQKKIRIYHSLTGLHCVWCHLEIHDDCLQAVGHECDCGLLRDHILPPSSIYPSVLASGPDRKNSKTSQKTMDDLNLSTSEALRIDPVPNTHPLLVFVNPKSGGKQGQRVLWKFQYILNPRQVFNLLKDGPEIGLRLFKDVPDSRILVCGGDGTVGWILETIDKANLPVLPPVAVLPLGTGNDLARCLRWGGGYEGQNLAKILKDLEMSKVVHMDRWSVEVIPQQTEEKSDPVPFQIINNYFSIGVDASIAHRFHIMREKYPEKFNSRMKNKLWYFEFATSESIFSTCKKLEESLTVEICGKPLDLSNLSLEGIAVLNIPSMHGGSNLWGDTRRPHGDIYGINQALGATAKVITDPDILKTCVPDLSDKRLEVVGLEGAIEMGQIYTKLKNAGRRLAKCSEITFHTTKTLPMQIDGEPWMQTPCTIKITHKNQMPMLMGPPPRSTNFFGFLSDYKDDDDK

Row | Structure (SMILES) | IC50
1 | Cn1c(=O)c(C#N)c(N2CCC(c3cccc(N=S(C)(C)=O)c3)CC2)c2ccccc21 [Example 69, 4-[4-(3-{[dimethyl(oxo)-A6-sulfanylidene]amino}phenyl)piperidin-1-yl]-1-methyl-2-oxo-1,2-dihydroquinoline-3-carbonitrile] | 105 nM
2 | Cc1ccc2oc(C3(C)CCN(c4c(C(N)=O)c(=O)n(C)c5cc(C)ccc45)CC3)nc2c1 [Example 312, 1,7-dimethyl-4-[4-methyl-4-(5-methyl-1,3-benzoxazol-2-yl)piperidin-1-yl]-2-oxo-1,2-dihydroquinoline-3-carboxamide] | 0.7 nM
3 | CCC1(c2nc3ccccc3o2)CCN(c2c(C#N)c(=O)n(C)c3ccccc23)CC1 [Example 106, 4-[4-(1,3-benzoxazol-2-yl)-4-ethylpiperidin-1-yl]-1-methyl-2-oxo-1,2-dihydroquinoline-3-carbonitrile] | 0.9 nM
4 | CNC(=O)c1c(N2CCC(c3nc4cc(C)ccc4o3)CC2)c2ccccc2n(C)c1=O [Example 448, N,1-dimethyl-4-[4-(5-methyl-1,3-benzoxazol-2-yl)piperidin-1-yl]-2-oxo-1,2-dihydroquinoline-3-carboxamide] | 27 nM
5 | Cc1ccc2oc(C3(C)CCN(c4c(C#N)c(=O)n(C)c5cc(Cl)ccc45)CC3)nc2c1 [Example 228, 7-chloro-1-methyl-4-[4-methyl-4-(5-methyl-1,3-benzoxazol-2-yl)piperidin-1-yl]-2-oxo-1,2-dihydroquinoline-3-carbonitrile] | 2.4 nM
6 | Cn1c(=O)c(C#N)c(N2CCC(c3nnc(-c4cccc(C(F)(F)F)c4)o3)CC2)c2cc(Br)ccc21 [Example 435, 6-bromo-1-methyl-2-oxo-4-(4-{5-[3-(trifluoromethyl)phenyl]-1,3,4-oxadiazol-2-yl}piperidin-1-yl)-1,2-dihydroquinoline-3-carbonitrile] | 4.3 nM
7 | Cc1ccc2oc(C3(C)CCN(c4c(C(N)=O)c(=O)n(C)c5ccc(C)cc45)CC3)nc2c1 [Example 198, 1,6-dimethyl-4-[4-methyl-4-(5-methyl-1,3-benzoxazol-2-yl)piperidin-1-yl]-2-oxo-1,2-dihydroquinoline-3-carboxamide] | 2.1 nM
8 | Cn1c(=O)c(C#N)c(N2CCC(c3ccc(OC(F)(F)F)cc3)CC2)c2ccccc21 [Example 43, 1-methyl-2-oxo-4-{4-[4-(trifluoromethoxy)phenyl]piperidin-1-yl}-1,2-dihydroquinoline-3-carbonitrile] | 11 nM
9 | Cc1ccc2oc(C3(C)CCN(c4c(C#N)c(=O)n(C)c5c(Br)cccc45)CC3)nc2c1 [Example 158, 8-bromo-1-methyl-4-[4-methyl-4-(5-methyl-1,3-benzoxazol-2-yl)piperidin-1-yl]-2-oxo-1,2-dihydroquinoline-3-carbonitrile] | 304 nM
10 | Cc1ccc2oc(C3(C)CCN(c4c(C#N)c(=O)n(C)c5ccc(Br)cc45)CC3)nc2c1 [Example 171, 6-bromo-1-methyl-4-[4-methyl-4-(5-methyl-1,3-benzoxazol-2-yl)piperidin-1-yl]-2-oxo-1,2-dihydroquinoline-3-carbonitrile] | 1.5 nM
11 | Cc1ccccc1-c1nnc(C2CCN(c3c(C#N)c(=O)n(C)c4cc(O)c(Br)cc34)CC2)o1 [Example 445, 6-bromo-7-hydroxy-1-methyl-4-{4-[5-(2-methylphenyl)-1,3,4-oxadiazol-2-yl]piperidin-1-yl}-2-oxo-1,2-dihydroquinoline-3-carbonitrile] | 44 nM
12 | Cn1c(=O)c(C#N)c(N2CCC(c3cccc(NC(=O)c4ccccc4)c3)CC2)c2ccccc21 [Example 76, N-{3-[1-(3-cyano-1-methyl-2-oxo-1,2-dihydroquinolin-4-yl)piperidin-4-yl]phenyl}benzamide] | 50 nM
13 | Cn1c(=O)c(C#N)c(N2CCC(c3ccc4c(c3)CC(O)C4)CC2)c2ccccc21 (centres unmarked) [Example 359, 4-[4-(2-hydroxy-2,3-dihydro-1H-inden-5-yl)piperidin-1-yl]-1-methyl-2-oxo-1,2-dihydroquinoline-3-carbonitrile] | 3.3 nM
14 | Cc1ccc2c(N3CCC(c4nc5ccccc5o4)CC3)c(C#N)c(=O)n(C)c2c1 [Example 219, 4-[4-(1,3-benzoxazol-2-yl)piperidin-1-yl]-1,7-dimethyl-2-oxo-1,2-dihydroquinoline-3-carbonitrile] | 1.6 nM
15 | Cc1ccc2oc(C3CCN(c4c(C(N)=O)c(=O)n(C)c5cc(O)c(Br)cc45)CC3)nc2c1 [Example 511, 6-bromo-7-hydroxy-1-methyl-4-[4-(5-methyl-1,3-benzoxazol-2-yl)piperidin-1-yl]-2-oxo-1,2-dihydroquinoline-3-carboxamide] | 1.5 nM
16 | Cc1ccc2c(c1)c(N1CCC(c3nc4ccc(Cl)cc4o3)CC1)c(C#N)c(=O)n2C [Example 183, 4-[4-(6-chloro-1,3-benzoxazol-2-yl)piperidin-1-yl]-1,6-dimethyl-2-oxo-1,2-dihydroquinoline-3-carbonitrile] | 1.5 nM

Row | Structure (SMILES) | IC50
17 | Cc1ccc2oc(C3CCN(c4c(C#N)c(=O)n(C)c5cc(N(C)CCO)ccc45)CC3)nc2c1 [Example 399, 7-[(2-hydroxyethyl)(methyl)amino]-1-methyl-4-[4-(5-methyl-1,3-benzoxazol-2-yl)piperidin-1-yl]-2-oxo-1,2-dihydroquinoline-3-carbonitrile] | 0.5 nM
18 | Cc1ccc2oc(C3CCN(c4c(C#N)c(=O)n(C)c5cc(N(C)C6COC6)ccc45)CC3)nc2c1 [Example 398, 1-methyl-4-[4-(5-methyl-1,3-benzoxazol-2-yl)piperidin-1-yl]-7-[methyl(oxetan-3-yl)amino]-2-oxo-1,2-dihydroquinoline-3-carbonitrile] | 1.7 nM
19 | Cc1ccc2oc(C3CCN(c4c(C#N)c(=O)n(C)c5cc(OC6COC6)ccc45)CC3)nc2c1 [Example 385, 1-methyl-4-[4-(5-methyl-1,3-benzoxazol-2-yl)piperidin-1-yl]-7-[(oxetan-3-yl)oxy]-2-oxo-1,2-dihydroquinoline-3-carbonitrile] | 0.9 nM
20 | Cc1ccc2oc(C3CCN(c4c(C(N)=O)c(=O)n(C)c5ccc(C)cc45)CC3)nc2c1 [Example 194, 1,6-dimethyl-4-[4-(5-methyl-1,3-benzoxazol-2-yl)piperidin-1-yl]-2-oxo-1,2-dihydroquinoline-3-carboxamide] | 2.2 nM
21 | Cn1c(=O)c(C#N)c(N2CCC(F)(c3nc4ccccc4s3)CC2)c2ccccc21 [Example 16, 4-[4-(1,3-benzothiazol-2-yl)-4-fluoropiperidin-1-yl]-1-methyl-2-oxo-1,2-dihydroquinoline-3-carbonitrile] | 9.9 nM
22 | Cc1cccc(-c2nnc(C3CCN(c4c(C(N)=O)c(=O)n(C)c5ccccc45)CC3)o2)c1 [Example 463, 1-methyl-4-{4-[5-(3-methylphenyl)-1,3,4-oxadiazol-2-yl]piperidin-1-yl}-2-oxo-1,2-dihydroquinoline-3-carboxamide] | 113 nM
23 | Cc1ccc2oc(C3CCN(c4c(C(N)=O)c(=O)n(C)c5ccc(F)cc45)CC3)nc2c1 [Example 298, 6-fluoro-1-methyl-4-[4-(5-methyl-1,3-benzoxazol-2-yl)piperidin-1-yl]-2-oxo-1,2-dihydroquinoline-3-carboxamide] | 0.5 nM
24 | Cc1ccc2oc(C3CCN(c4c(C#N)c(=O)n(C)c5cc(O)c(Cl)cc45)CC3)nc2c1 [Example 567, 6-chloro-7-hydroxy-1-methyl-4-[4-(5-methyl-1,3-benzoxazol-2-yl)piperidin-1-yl]-2-oxo-1,2-dihydroquinoline-3-carbonitrile] | 2 nM
25 | COc1ccccc1-c1csc(C2CCN(c3c(C#N)c(=O)n(C)c4ccccc34)CC2)n1 [Example 373, 4-{4-[4-(2-methoxyphenyl)-1,3-thiazol-2-yl]piperidin-1-yl}-1-methyl-2-oxo-1,2-dihydroquinoline-3-carbonitrile] | 9.9 nM
26 | Cc1ccc2oc(C3(C)CCN(c4c(C(N)=O)c(=O)n(C)c5cc(O)c(Br)cc45)CC3)nc2c1 [Example 512, 6-bromo-7-hydroxy-1-methyl-4-[4-methyl-4-(5-methyl-1,3-benzoxazol-2-yl)piperidin-1-yl]-2-oxo-1,2-dihydroquinoline-3-carboxamide] | 0.8 nM
27 | Cc1ccc2oc(C3CCN(c4c(C#N)c(=O)n(C)c5ccc(C6(C(F)(F)F)CC6)cc45)CC3)nc2c1 [Example 412, 1-methyl-4-[4-(5-methyl-1,3-benzoxazol-2-yl)piperidin-1-yl]-2-oxo-6-[1-(trifluoromethyl)cyclopropyl]-1,2-dihydroquinoline-3-carbonitrile] | 21 nM
28 | Cc1ccc2c(c1)c(N1CCC(C)(c3nc4ccccc4o3)CC1)c(C#N)c(=O)n2C [Example 214, 4-[4-(1,3-benzoxazol-2-yl)-4-methylpiperidin-1-yl]-1,6-dimethyl-2-oxo-1,2-dihydroquinoline-3-carbonitrile] | 0.9 nM
29 | COc1ccc(C2CCN(c3c(C#N)c(=O)n(C)c4cc(Br)ccc34)CC2)cc1 [Example 89, 7-bromo-4-[4-(4-methoxyphenyl)piperidin-1-yl]-1-methyl-2-oxo-1,2-dihydroquinoline-3-carbonitrile] | 2.1 nM
30 | Cc1ccc2oc(C3CCN(c4c(C(N)=O)c(=O)n(C)c5ccc(OCC6CC6)cc45)CC3)nc2c1 [Example 505, 6-(cyclopropylmethoxy)-1-methyl-4-[4-(5-methyl-1,3-benzoxazol-2-yl)piperidin-1-yl]-2-oxo-1,2-dihydroquinoline-3-carboxamide] | 269 nM
31 | Cc1ccc2oc(C3(C)CCN(c4c(C#N)c(=O)n(C)c5cc(C6CC(F)(F)C6)ccc45)CC3)nc2c1 [Example 252, 7-(3,3-difluorocyclobutyl)-1-methyl-4-[4-methyl-4-(5-methyl-1,3-benzoxazol-2-yl)piperidin-1-yl]-2-oxo-1,2-dihydroquinoline-3-carbonitrile] | 13 nM
32 | Cn1c(=O)c(C(N)=O)c(N2CCC(C)(c3nc4ccccc4o3)CC2)c2ccc(C(F)(F)F)cc21 [Example 306, 4-[4-(1,3-benzoxazol-2-yl)-4-methylpiperidin-1-yl]-1-methyl-2-oxo-7-(trifluoromethyl)-1,2-dihydroquinoline-3-carboxamide] | 4.1 nM
